From patent US8242275B2, “Bicyclic pyrazole compounds as antibacterial agents” (Janssen Pharmaceutica NV, priority 2005, dated 2012)
In brackets after ≈: the same amount, converted by molar mass.

Key:
Assay in all cases: In vitro antibacterial activity (MIC assay), broth microdilution
Type in all cases: cell-based
[1] = tested on: E. coli KL-16 (GSC strain 4245); conditions: Escherichia coli
Experimental: (§1) Minimal inhibitory concentration (MIC) has been an indicator of in vitro antibacterial activity widely used in the art. The in vitro antibacterial activity of the compounds was determined by the broth microdilution method described by the National Committee for Clinical Laboratory Standards (NCCLS) in the NCCLS Document M7-A5, Vol. 20, No. 2, “Methods for Dilution Antimicrobial Susceptibility Test for Bacteria that Grow Aerobically—Fifth Edition”, which is incorporated herein by reference.
(§2) In this method, an aliquot of test compound from an 11-point series of 2-fold serial dilutions of compounds in 100% DMSO was added to wells in microdilution plates. The test organisms were prepared by adjusting the turbidity of actively growing broth cultures so that the final concentration of test organism after addition to wells with or without compounds was approximately 5×10^5 CFU/mL.
(§3) Following inoculation of the microdilution plates, the plates were incubated at 35° C. for 16-24 h and then scored for bacterial growth. […] The amount of growth in the wells containing the test compound was compared with the amount of growth in the growth-control wells (no test compound used) in each plate, and with the amount of growth in the wells containing control compounds (such as ciprofloxacin). Compounds of the present invention were tested against several bacterial strains. The MIC values (in μg/mL) are presented in Table 1 for Gram-negative (E. coli KL-16 (GSC strain 4245); data marked as (*) was obtained with E. coli ATCC25922) and Gram-positive bacteria (S. aureus ATCC13709; S. pneumoniae ATCC49619).

S. pneumoniae ATCC49619 = conditions: Streptococcus pneumoniae, ATCC49619; read-out: S. pneumoniae ATCC49619 MIC
Experimental: as §1, §2, §3

S. aureus ATCC13709 = conditions: Staphylococcus aureus, ATCC13709; read-out: S. aureus ATCC13709 MIC
Experimental: as §1, §2, §3

| MIC [1] | MIC (S. pneumoniae ATCC49619) | MIC (S. aureus ATCC13709) | Structure (SMILES) |
| --- | --- | --- | --- |
| > 128 µg/mL | 8 µg/mL (≈ 16.8 µM) | 0.5 µg/mL (≈ 1.05 µM) | COc1ccc2nccc(-n3cc4c(n3)CCC(NC(=O)c3cc5c(cc3F)OCCO5)C4)c2n1 (stereo not drawn) [Example 2, 7-Fluoro-2,3-dihydro-benzo[1,4]dioxine-6-carboxylic acid [2-(6-methoxy-[1,5]naphthyridin-4-yl)-4,5,6,7-tetrahydro-2H-indazol-5-yl]-amide] |
| > 128 µg/mL | 4 µg/mL (≈ 8.48 µM) | 1 µg/mL (≈ 2.12 µM) | COc1ccc2nccc(-n3cc4c(n3)CCC(NC(=O)c3ccc5c(c3)OCCCO5)C4)c2n1 (stereo not drawn) [Example 3, 3,4-Dihydro-2H-benzo[b][1,4]dioxepine-7-carboxylic acid [2-(6-methoxy-[1,5]naphthyridin-4-yl)-4,5,6,7-tetrahydro-2H-indazol-5-yl]-amide] |
| > 128 µg/mL | 2 µg/mL (≈ 4.7 µM) | 0.25 µg/mL (≈ 0.588 µM) | COc1ccc2nccc(-n3cc4c(n3)CCC(NC(=O)/C=C/c3ccccc3)C4)c2n1 (stereo not drawn) [Example 10, N-[2-(6-Methoxy-[1,5]naphthyridin-4-yl)-4,5,6,7-tetrahydro-2H-indazol-5-yl]-3-phenyl-acrylamide] |
| > 128 µg/mL | 8 µg/mL (≈ 17.5 µM) | 2 µg/mL (≈ 4.38 µM) | COc1ccc2nccc(-n3cc4c(n3)CCC(NC(=O)c3ccc5c(c3)OCCO5)C4)c2c1 (stereo not drawn) [Example 16, 2,3-Dihydro-benzo[1,4]dioxine-6-carboxylic acid [2-(6-methoxy-quinolin-4-yl)-4,5,6,7-tetrahydro-2H-indazol-5-yl]-amide] |
| > 128 µg/mL | 4 µg/mL (≈ 8.46 µM) | < 0.125 µg/mL | COc1ccc2nccc(-n3cc4c(n3)CCC(NC(=O)c3cc5c(F)cccc5s3)C4)c2c1 (stereo not drawn) [Example 24, 4-Fluoro-benzo[b]thiophene-2-carboxylic acid [2-(6-methoxy-quinolin-4-yl)-4,5,6,7-tetrahydro-2H-indazol-5-yl]-amide] |
| 4 µg/mL (≈ 8.24 µM) | 4 µg/mL (≈ 8.24 µM) | 0.125 µg/mL (≈ 0.257 µM) | COc1ccc2nccc(-n3cc4c(n3)CC(NC(=O)c3ccc5c(c3)NC(=O)CS5)CC4)c2c1 (stereo not drawn) [Example 27, 3-Oxo-3,4-dihydro-2H-benzo[1,4]thiazine-6-carboxylic acid [2-(6-methoxy-quinolin-4-yl)-4,5,6,7-tetrahydro-2H-indazol-6-yl]-amide] |
| > 128 µg/mL | 4 µg/mL (≈ 9.42 µM) | 1 µg/mL (≈ 2.36 µM) | COc1ccc2nccc(-n3cc4c(n3)CCC(NC(=O)/C=C/c3ccccc3)C4)c2c1 (stereo not drawn) [Example 29, N-[2-(6-Methoxy-quinolin-4-yl)-4,5,6,7-tetrahydro-2H-indazol-5-yl]-3-phenyl-acrylamide] |
| > 128 µg/mL | 8 µg/mL (≈ 18.6 µM) | 1 µg/mL (≈ 2.32 µM) | COc1ccc2nccc(-n3cc4c(n3)CCC(NC(=O)/C=C/c3cccs3)C4)c2c1 (stereo not drawn) [Example 30, N-[2-(6-Methoxy-quinolin-4-yl)-4,5,6,7-tetrahydro-2H-indazol-5-yl]-3-thiophen-2-yl-acrylamide] |
| > 128 µg/mL | 1 µg/mL (≈ 2.33 µM) | 0.5 µg/mL (≈ 1.17 µM) | COc1ccc2nccc(-n3cc4c(n3)CCC(NCc3ccc(N(C)C)cc3)C4)c2n1 (stereo not drawn) [Example 39, (4-Dimethylamino-benzyl)-[2-(6-methoxy-[1,5]naphthyridin-4-yl)-4,5,6,7-tetrahydro-2H-indazol-5-yl]-amine] |
| > 128 µg/mL | 1 µg/mL (≈ 2.17 µM) | 1 µg/mL (≈ 2.17 µM) | COc1ccc2nccc(-n3cc4c(n3)CCC(NCc3cc5c(cc3F)OCCO5)C4)c2c1 (stereo not drawn) [Example 51, (7-Fluoro-2,3-dihydro-benzo[1,4]dioxin-6-ylmethyl)-[2-(6-methoxy-quinolin-4-yl)-4,5,6,7-tetrahydro-2H-indazol-5-yl]-amine] |
| 128 µg/mL (≈ 301 µM) | 2 µg/mL (≈ 4.71 µM) | 1 µg/mL (≈ 2.36 µM) | COc1ccc2nccc(-n3cc4c(n3)CCC(NC/C(C)=C/c3ccccc3)C4)c2c1 (stereo not drawn) [Example 56, [2-(6-Methoxy-quinolin-4-yl)-4,5,6,7-tetrahydro-2H-indazol-5-yl]-(2-methyl-3-phenyl-allyl)-amine] |
| 128 µg/mL (≈ 299 µM) | 8 µg/mL (≈ 18.7 µM) | 1 µg/mL (≈ 2.33 µM) | COc1ccc2nccc(-n3cc4c(n3)CCC(NCC(=O)Nc3ccccc3)C4)c2n1 (stereo not drawn) [Example 59, 2-[2-(6-Methoxy-[1,5]naphthyridin-4-yl)-4,5,6,7-tetrahydro-2H-indazol-5-ylamino]-N-phenyl-acetamide] |
| > 128 µg/mL | 16 µg/mL (≈ 32.2 µM) | 1 µg/mL (≈ 2.01 µM) | COc1ccc2nccc(-n3cc4c(n3)CCC(NCC(=O)Nc3ccc(Cl)c(Cl)c3)C4)c2c1 (stereo not drawn) [Example 62, N-(3,4-Dichloro-phenyl)-2-[2-(6-methoxy-quinolin-4-yl)-4,5,6,7-tetrahydro-2H-indazol-5-ylamino]-acetamide] |
| 6 µg/mL (≈ 12.4 µM) | 0.8 µg/mL (≈ 1.65 µM) | 0.1 µg/mL (≈ 0.207 µM) | COc1ccc2nccc(-n3cc4c(n3)CCC(NCC(=O)c3ccc5c(c3)NC(=O)CO5)C4)c2c1 (stereo not drawn) [Example 63, 6-{2-[2-(6-Methoxy-quinolin-4-yl)-4,5,6,7-tetrahydro-2H-indazol-5-ylamino]-acetyl}-4H-benzo[1,4]oxazin-3-one] |
| > 128 µg/mL | 8 µg/mL (≈ 18.2 µM) | 2 µg/mL (≈ 4.56 µM) | COc1ccc2nccc(-n3cc4c(n3)CCC(NC(=O)c3nc5ccccc5[nH]3)C4)c2c1 (stereo not drawn) [Example 71, 1H-Benzoimidazole-2-carboxylic acid [2-(6-methoxy-quinolin-4-yl)-4,5,6,7-tetrahydro-2H-indazol-5-yl]-amide] |
| > 128 µg/mL | > 128 µg/mL | 2 µg/mL (≈ 3.87 µM) | COc1ccc2nccc(-n3cc4c(n3)CCC(NC(=O)c3cc5cc(Br)ccc5[nH]3)C4)c2c1 (stereo not drawn) [Example 76, 5-Bromo-1H-indole-2-carboxylic acid [2-(6-methoxy-quinolin-4-yl)-4,5,6,7-tetrahydro-2H-indazol-5-yl]-amide] |
| > 128 µg/mL | > 128 µg/mL | 8 µg/mL (≈ 16.4 µM) | Cc1cc(-n2cc3c(n2)CCC(NC(=O)c2ccc4c(c2)NC(=O)CS4)C3)c2cc(F)ccc2n1 (stereo not drawn) [Example 82, 3-Oxo-3,4-dihydro-2H-benzo[1,4]thiazine-6-carboxylic acid [2-(6-fluoro-2-methyl-quinolin-4-yl)-4,5,6,7-tetrahydro-2H-indazol-5-yl]-amide] |
| > 128 µg/mL | 16 µg/mL (≈ 36.2 µM) | 2 µg/mL (≈ 4.52 µM) | COc1ccc2nccc(-n3cc4c(n3)CCC(NCC(=O)NCc3ccccc3)C4)c2n1 (stereo not drawn) [Example 84, N-Benzyl-2-[2-(6-methoxy-[1,5]naphthyridin-4-yl)-4,5,6,7-tetrahydro-2H-indazol-5-ylamino]-acetamide] |
| > 128 µg/mL | 8 µg/mL (≈ 17.3 µM) | 4 µg/mL (≈ 8.63 µM) | COc1ccc2nccc(-n3cc4c(n3)CCC(NCc3cc(OC)c(OC)cc3F)C4)c2n1 (stereo not drawn) [Example 88, (2-Fluoro-4,5-dimethoxy-benzyl)-[2-(6-methoxy-[1,5]naphthyridin-4-yl)-4,5,6,7-tetrahydro-2H-indazol-5-yl]-amine] |
| > 128 µg/mL | > 128 µg/mL | 2 µg/mL (≈ 3.96 µM) | COc1ccc2nccc(-n3cc4c(n3)CCC(NC(=O)/C=C/c3cc([N+](=O)[O-])ccc3Cl)C4)c2n1 (stereo not drawn) [Example 94, 3-(2-Chloro-5-nitro-phenyl)-N-[2-(6-methoxy-[1,5]naphthyridin-4-yl)-4,5,6,7-tetrahydro-2H-indazol-5-yl]-acrylamide] |
| > 128 µg/mL | 64 µg/mL (≈ 113 µM) | 16 µg/mL (≈ 28.3 µM) | COc1ccc2nccc(-n3ncc4c3CCC(NC(=O)c3cc5c(cc3Br)SCC(=O)N5)C4)c2c1 (stereo not drawn) [Example 98, 7-Bromo-3-oxo-3,4-dihydro-2H-benzo[1,4]thiazine-6-carboxylic acid [1-(6-methoxy-quinolin-4-yl)-4,5,6,7-tetrahydro-1H-indazol-5-yl]-amide] |
| > 128 µg/mL | > 128 µg/mL | 2 µg/mL (≈ 3.61 µM) | COc1ccc2nccc(-n3ncc4c3CCC(NC(=O)c3cc5c(cc3C(F)(F)F)SCC(=O)N5)C4)c2c1 (stereo not drawn) [Example 99, 3-Oxo-7-trifluoromethyl-3,4-dihydro-2H-benzo[1,4]thiazine-6-carboxylic acid [1-(6-methoxy-quinolin-4-yl)-4,5,6,7-tetrahydro-1H-indazol-5-yl]-amide] |
| > 128 µg/mL | 8 µg/mL (≈ 17.4 µM) | 0.25 µg/mL (≈ 0.545 µM) | COc1ccc2nccc(-n3cc4c(n3)CCC(NC(=O)c3ccc(C)c([N+](=O)[O-])c3)C4)c2n1 (stereo not drawn) [Example 110, N-[2-(6-Methoxy-[1,5]naphthyridin-4-yl)-4,5,6,7-tetrahydro-2H-indazol-5-yl]-4-methyl-3-nitro-benzamide] |
| > 128 µg/mL | 8 µg/mL (≈ 16.9 µM) | 4 µg/mL (≈ 8.43 µM) | COc1ccc2nccc(-n3cc4c(n3)CCC(NC(=O)c3ccc(OC)c([N+](=O)[O-])c3)C4)c2n1 (stereo not drawn) [Example 119, 4-Methoxy-N-[2-(6-methoxy-[1,5]naphthyridin-4-yl)-4,5,6,7-tetrahydro-2H-indazol-5-yl]-3-nitro-benzamide] |
| > 128 µg/mL | 32 µg/mL (≈ 64.5 µM) | 2 µg/mL (≈ 4.03 µM) | COc1ccc2nccc(-n3cc4c(n3)CCC(NCC(=O)Nc3cccc(C(F)(F)F)c3)C4)c2n1 (stereo not drawn) [Example 122, 2-[2-(6-Methoxy-[1,5]naphthyridin-4-yl)-4,5,6,7-tetrahydro-2H-indazol-5-ylamino]-N-(3-trifluoromethyl-phenyl)-acetamide] |
